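Cultured in 96-well plates, cells were exposed to test compound for 48 hours across five concentrations. GI50: concentration for 50% inhibition of growth.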 Activity calls are given as the source filed them. No stated cut-off is given here; in the data, active = GI50 up to about 1.1 µM and inactive = higher.
Assays:
Experiment in all cases: growth of human tumour cells (NCI), 48 h
[1] = tested on: UO-31
[2] = tested on: SF-295
[3] = tested on: ACHN
[4] = tested on: OVCAR-8
[5] = tested on: SF-268
[6] = tested on: MDA-N
[7] = tested on: TK-10
[8] = tested on: K562
[9] = tested on: SN12C
[10] = tested on: NCI-H23
[11] = tested on: BT-549
[12] = tested on: CCRF-CEM
[13] = tested on: SK-MEL-5
[14] = tested on: Hs-578T
[15] = tested on: M14
[16] = tested on: KM12
[17] = tested on: HCT-15
[18] = tested on: NCI/ADR-RES
[19] = tested on: LOX IMVI
[20] = tested on: DMS-273

Row | Compound | GI50 [1] | GI50 [2] | GI50 [3] | GI50 [4] | GI50 [5] | GI50 [6] | GI50 [7] | GI50 [8] | GI50 [9] | GI50 [10] | GI50 [11] | GI50 [12] | GI50 [13] | GI50 [14] | GI50 [15] | GI50 [16] | GI50 [17] [µM] | GI50 [18] | GI50 [19] | GI50 [20]
1 | NCCP(=O)(O)O | > 100 µM (inactive) | > 100 µM (inactive) | > 100 µM (inactive) | > 100 µM (inactive) | > 100 µM (inactive) | > 100 µM (inactive) | > 100 µM (inactive) | > 100 µM (inactive) | > 100 µM (inactive) | > 100 µM (inactive) | > 100 µM (inactive) | > 100 µM (inactive) | > 100 µM (inactive) | > 100 µM (inactive) | > 100 µM (inactive) | > 100 µM (inactive) | > 100 | > 100 µM (inactive) | > 100 µM (inactive) | –
2 | COc1ccc(/C=c2/sc3n(c2=O)NC2(CCCCC2)NN=3)cc1 | > 100 µM (inactive) | > 100 µM (inactive) | – | > 100 µM (inactive) | > 100 µM (inactive) | – | > 100 µM (inactive) | > 100 µM (inactive) | > 100 µM (inactive) | > 100 µM (inactive) | – | > 100 µM (inactive) | > 100 µM (inactive) | – | > 100 µM (inactive) | > 100 µM (inactive) | – | – | > 100 µM (inactive) | > 100 µM (inactive)
3 | C=CCO/N=C(\OC(=O)c1ccc([N+](=O)[O-])cc1)c1ccccc1 | > 100 µM (inactive) | > 100 µM (inactive) | > 100 µM (inactive) | > 100 µM (inactive) | > 100 µM (inactive) | – | > 100 µM (inactive) | > 100 µM (inactive) | > 100 µM (inactive) | > 100 µM (inactive) | – | > 100 µM (inactive) | > 100 µM (inactive) | – | > 100 µM (inactive) | > 100 µM (inactive) | > 100 | – | – | > 100 µM (inactive)
4 | Oc1ccc(Br)cc1/C=N/c1cccc(C(F)(F)F)c1 | 35.6 µM (inactive) | 38.6 µM (inactive) | > 100 µM (inactive) | 30.4 µM (inactive) | 8.69 µM (inactive) | 32.9 µM (inactive) | > 100 µM (inactive) | 12.4 µM (inactive) | 30.5 µM (inactive) | 37.2 µM (inactive) | 22.3 µM (inactive) | 3.37 µM (inactive) | 28.3 µM (inactive) | 28 µM (inactive) | 17.5 µM (inactive) | 36.6 µM (inactive) | 6.07 | 28.5 µM (inactive) | 18.3 µM (inactive) | –
5 | COc1ccccc1C1ON=C(c2ccc([N+](=O)[O-])cc2)N1C12CC3CC(CC(C3)C1)C2 (stereo not drawn) | > 100 µM (inactive) | 80.2 µM (inactive) | > 100 µM (inactive) | > 100 µM (inactive) | > 100 µM (inactive) | > 100 µM (inactive) | > 100 µM (inactive) | 36.7 µM (inactive) | > 100 µM (inactive) | > 100 µM (inactive) | > 100 µM (inactive) | 28.7 µM (inactive) | 59.6 µM (inactive) | 37.9 µM (inactive) | 84.3 µM (inactive) | > 100 µM (inactive) | 91.6 | > 100 µM (inactive) | > 100 µM (inactive) | –
6 | CC12CCC(C(Nc3ccccn3)C1=O)C2(C)C (stereo not drawn) | > 100 µM (inactive) | > 100 µM (inactive) | > 100 µM (inactive) | > 100 µM (inactive) | > 100 µM (inactive) | > 100 µM (inactive) | > 100 µM (inactive) | > 100 µM (inactive) | > 100 µM (inactive) | > 100 µM (inactive) | > 100 µM (inactive) | > 100 µM (inactive) | > 100 µM (inactive) | > 100 µM (inactive) | > 100 µM (inactive) | > 100 µM (inactive) | > 100 | > 100 µM (inactive) | > 100 µM (inactive) | –
7 | CCOC(=O)c1c(NS(=O)(=O)c2ccc(Br)cc2)sc2c1CCCC2 | 3.51 µM (inactive) | 3.92 µM (inactive) | 3.93 µM (inactive) | 5.89 µM (inactive) | 3.72 µM (inactive) | 13.8 µM (inactive) | 10.8 µM (inactive) | 5.79 µM (inactive) | 6.14 µM (inactive) | 6.34 µM (inactive) | 7.59 µM (inactive) | 5.51 µM (inactive) | 7.29 µM (inactive) | 4.43 µM (inactive) | 4.8 µM (inactive) | 6.65 µM (inactive) | 7.35 | 1.57 µM (inactive) | 13.6 µM (inactive) | –
8 | Cc1cc(S(=O)(=O)Nc2nc(N)nc(N3N=CCC3C)n2)c(SCC(=O)O)cc1Cl (stereo not drawn) | 0.001 µM (active) | > 10 µM (inactive) | > 10 µM (inactive) | > 10 µM (inactive) | > 10 µM (inactive) | > 10 µM (inactive) | > 10 µM (inactive) | > 10 µM (inactive) | > 10 µM (inactive) | > 10 µM (inactive) | > 10 µM (inactive) | > 10 µM (inactive) | > 10 µM (inactive) | > 10 µM (inactive) | > 10 µM (inactive) | > 10 µM (inactive) | > 10 | > 10 µM (inactive) | > 10 µM (inactive) | –
9 | O=C1CC(=O)c2c(Cl)sc(Cl)c21 | > 100 µM (inactive) | > 100 µM (inactive) | > 100 µM (inactive) | 52.2 µM (inactive) | 64.7 µM (inactive) | > 100 µM (inactive) | > 100 µM (inactive) | 40.9 µM (inactive) | > 100 µM (inactive) | 51.6 µM (inactive) | > 100 µM (inactive) | 37.2 µM (inactive) | > 100 µM (inactive) | 33.8 µM (inactive) | > 100 µM (inactive) | > 100 µM (inactive) | 64.4 | > 100 µM (inactive) | 52.8 µM (inactive) | –
10 | NC(=S)N/N=C1\CCCC\C1=C/c1ccccc1 | 32.5 µM (inactive) | > 100 µM (inactive) | > 100 µM (inactive) | > 100 µM (inactive) | 54 µM (inactive) | – | 39.9 µM (inactive) | 2.71 µM (inactive) | 39.5 µM (inactive) | > 100 µM (inactive) | – | 30.5 µM (inactive) | – | – | 91 µM (inactive) | 45.1 µM (inactive) | 67.1 | – | > 100 µM (inactive) | 18.5 µM (inactive)
11 | CCOC(=O)c1c(-c2ccccc2)[nH]c2ccc(Cl)cc2c1=O | 29.4 µM (inactive) | 47.8 µM (inactive) | 27.6 µM (inactive) | 31.8 µM (inactive) | 50.1 µM (inactive) | 37.7 µM (inactive) | 42.8 µM (inactive) | 28.8 µM (inactive) | 51.4 µM (inactive) | 41.1 µM (inactive) | 30.8 µM (inactive) | 26.4 µM (inactive) | 29.8 µM (inactive) | 35.4 µM (inactive) | 49.9 µM (inactive) | 34.8 µM (inactive) | 33.3 | 32.2 µM (inactive) | 37.4 µM (inactive) | –
12 | Cc1nc(O)nc2nc3ccc(Cl)cc3c(NCCNCCO)c12 | 8.65 µM (inactive) | 16.3 µM (inactive) | 14.3 µM (inactive) | 9.46 µM (inactive) | 10.1 µM (inactive) | 12.8 µM (inactive) | 18.7 µM (inactive) | 8.59 µM (inactive) | 7.18 µM (inactive) | 8.77 µM (inactive) | 16.7 µM (inactive) | 9.27 µM (inactive) | 12.3 µM (inactive) | 13.5 µM (inactive) | 12.1 µM (inactive) | 10.8 µM (inactive) | 17.9 | 19.4 µM (inactive) | 8.83 µM (inactive) | –
13 | CC1CC2C3CC(F)C4=CC(=O)C=CC4(C)C3(F)C(O)CC2(C)C1(O)C(=O)CO (stereo not drawn) | > 100 µM (inactive) | > 100 µM (inactive) | > 100 µM (inactive) | – | > 100 µM (inactive) | – | > 100 µM (inactive) | > 100 µM (inactive) | – | > 100 µM (inactive) | – | 0.0112 µM (active) | > 100 µM (inactive) | – | > 100 µM (inactive) | > 100 µM (inactive) | > 100 | – | > 100 µM (inactive) | > 100 µM (inactive)
14 | O=S(=O)(O)SC/C=C\CSS(=O)(=O)O | > 100 µM (inactive) | 31.3 µM (inactive) | > 100 µM (inactive) | > 100 µM (inactive) | 48.9 µM (inactive) | – | > 100 µM (inactive) | > 100 µM (inactive) | > 100 µM (inactive) | > 100 µM (inactive) | – | – | > 100 µM (inactive) | – | > 100 µM (inactive) | 21.4 µM (inactive) | > 100 | – | 24.8 µM (inactive) | 69.5 µM (inactive)
15 | CC12CCC[C@@](C)(C(=O)OC3OC(CO)C(O)C(O)C3O)[C@H]1CCC13CC4CC(OC4(CO)[C@H]1O)[C@@H]23 (stereo partly drawn) | > 100 µM (inactive) | > 100 µM (inactive) | > 100 µM (inactive) | > 100 µM (inactive) | > 100 µM (inactive) | – | > 100 µM (inactive) | > 100 µM (inactive) | > 100 µM (inactive) | > 100 µM (inactive) | – | > 100 µM (inactive) | > 100 µM (inactive) | – | > 100 µM (inactive) | > 100 µM (inactive) | 53.7 | – | – | > 100 µM (inactive)
16 | Nc1nc(O)nc2c1ncn2C1OC(CO)C(O)C1O (stereo not drawn) | 49.9 µM (inactive) | > 100 µM (inactive) | 78.9 µM (inactive) | 23.8 µM (inactive) | > 100 µM (inactive) | 46.5 µM (inactive) | 38.5 µM (inactive) | 44.2 µM (inactive) | 33.1 µM (inactive) | > 100 µM (inactive) | > 100 µM (inactive) | 33 µM (inactive) | > 100 µM (inactive) | > 100 µM (inactive) | 39.9 µM (inactive) | > 100 µM (inactive) | 28.4 | 22.6 µM (inactive) | 38.8 µM (inactive) | –

Reference: ChEMBL document CHEMBL1201862, “PubChem BioAssay data set” (2004)
